# Assay results: publication PMC12483202, “Pharmacokinetic profile of oral firocoxib in the koala (Phascolarctos cinereus)” (PLOS One, 2025)
# Assay: Single oral dose (5 mg/kg) pharmacokinetics of firocoxib in koalas, plasma HPLC, non-compartmental analysis;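 also: healthy adult koalas, three per sex, anaesthetised the day before dosing for cephalic vein catheterisation, with serial blood draws and firocoxib in plasma quantified by HPLC using fluorescence detection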
# Settings: for Cmax / MRT inf / Tmax / Vd/F / k el / half-life / concentration at 2 h / concentration at 4 h / concentration at 8 h / concentration at 1 h / concentration at 0.25 h / concentration at 0.5 h / concentration at 12 h / concentration at 24 h / AUC(0-inf) / AUC(0-t): plasma, po, 5 mg/kg; for MRT inf: MRT0-inf; for Vd/F: Vz/F; for concentration at 2 h / concentration at 4 h / concentration at 8 h / concentration at 1 h / concentration at 0.25 h / concentration at 0.5 h / concentration at 12 h / concentration at 24 h: Firocoxib plasma concentration; for AUC(0-t): AUC0-t
# [1] = female, K4 female, single oral 5 mg/kg
# [2] = female, K5 female, single oral 5 mg/kg
# [3] = female, arithmetic mean, female koalas (n = 3), single oral 5 mg/kg
# [4] = female, harmonic mean, female koalas (n = 3), single oral 5 mg/kg
# [5] = female, K6 female, single oral 5 mg/kg
# [6] = harmonic mean, female koalas (n = 3), single oral 5 mg/kg
# [7] = harmonic mean, male koalas (n = 3), single oral 5 mg/kg
# [8] = harmonic mean, n = 6 koalas, single oral 5 mg/kg
# [9] = male, koala (Phascolarctos cinereus), K1 male, single oral 5 mg/kg
# [10] = male, koala (Phascolarctos cinereus), K2 male, single oral 5 mg/kg
# [11] = male, koala (Phascolarctos cinereus), K3 male, single oral 5 mg/kg
# [12] = male, koala, K1 male, single oral 5 mg/kg
# [13] = male, koala, K2 male, single oral 5 mg/kg
# [14] = male, koala, K3 male, single oral 5 mg/kg
# [15] = male, K1 male, single oral 5 mg/kg
# [16] = male, K2 male, single oral 5 mg/kg
# [17] = male, K3 male, single oral 5 mg/kg
# [18] = male, arithmetic mean, male koalas (n = 3), single oral 5 mg/kg
# [19] = male, harmonic mean, male koalas (n = 3), single oral 5 mg/kg
# [20] = median (range), n = 6 koalas, single oral 5 mg/kg
# From the text: Six mature koalas (3 males, 3 females) with median (range) body weights and ages of 9.2 kg, (7.5 to 9.7 kg) and 4.8 years (4.3 to 9.1 years), respectively, were recruited from the Taronga Zoo colony (Mosman, NSW, Australia). These koalas were clinically normal based on regular physical examinations, haematological and biochemical analyte values. During the study, koalas were housed singly and supplied with various Eucalyptus spp. foliage and water ad-libitum. […] No animals were sacrificed; the animals were returned to the colony immediately after firocoxib administration and blood sampling. In order to minimise stress, intravenous catheterisation for sequential blood sampling was performed under general anaesthesia.
# The day prior to drug administration and blood collection, the koalas were anaesthetised with alfaxalone (Alfaxan, Jurox, Pty Ltd, Rutherford, NSW, Australia) at 3 mg/kg administered intramuscularly (i.m.) and maintained under anaesthesia on isoflurane in 100% oxygen via a face mask for placement of a 20 gauge, 1 ¼ inch intravenous catheter into the cephalic vein. A short T-connector extension set (Codan, Santa Ana, CA, USA) and cap was attached to the catheter and flushed with saline. The extension tube, cap and catheter were secured with tape and bandage, for serial blood collection. Blood (5 mL) was collected at the time of anaesthesia in a lithium heparin tube to establish a baseline (t = 0 h).
# Firocoxib was administered as a single oral dose of 5 mg/kg as crushed tablets made into a paste with Vetafarm Koala Crittacare (Wagga Wagga, NSW) and water.
# Samples were centrifuged at 1500 x g for 10 minutes, within 1 h of collection; the plasma was immediately stored at –80 °C and protected from light until drug quantification. […] Clinical observations for the presence of adverse effects in the animals treated included measurement of vital signs, appetite, body weight, faecal consistency and overall behaviour and mobility.
# Quantification of firocoxib and visualisation of metabolites in plasma was achieved by HPLC with fluorescence detection modified from a published method [12]. The HPLC system consisted of a Shimadzu LC-20AT solvent delivery unit, DGU-20A degasser, a SIL-20A HT auto injector, an SPD-20A UV detector and RF-10A XL fluorescence detector (Shimadzu, Rydalmere, NSW, Australia) and column oven (CTO-20A). […] Chromatographic separation was performed with a Supelco, Discovery C18, (25 cm x 4.6 mm, 5 µm) column (Merck KGaA, Darmstadt, Germany) with a 1-mm Opti-guard C18 pre-column (Choice Analytical, Thornleigh, NSW, Australia) at ambient temperature. […] Fluorescence detection excitation and emission wavelengths were 280 nm and 375 nm, respectively.
# For sample preparation 200 μL of each of the following: plasma samples collected from koalas administered firocoxib, standards prepared for the standard curves and the QC samples; were extracted twice by mixing with 800 μL of ethyl acetate. The extracted organic portion (1.6 mL) was dried under vacuum in a Speed Vac Concentrator (Thermo Scientific, MA, USA) at 35 °C for 1 h, reconstituted with 100 μL of acetonitrile, and finally 10 μL of the reconstituted sample was injected into the HPLC system.
# The concentration of each QC sample was repeated three times with the accuracy and precision calculated on each of the triplicates. The mean accuracy ± standard deviation (SD) were calculated using the formula [13]:
# Firocoxib plasma concentrations from the initial oral administration underwent non-compartmental analysis. The peak concentration (Cmax) and the time reached (Tmax) were obtained directly from the measured concentrations. The elimination half-life (t1/2) was determined by ln2/ke where ke is the elimination rate constant which is the inverse slope of the elimination or terminal part of the semi-log curve.
smiles,measurement,setting,value
CC1(C)OC(=O)C(OCC2CC2)=C1c1ccc(S(C)(=O)=O)cc1 [firocoxib],Cmax,"female, median value, female koalas, PO 5 mg/kg",61.9 ng/mL
same,MRT inf,[1],8.74 h
same,MRT inf,[2],13.1 h
same,MRT inf,[3],16.1 h
same,MRT inf,[4],13.1 h
same,Tmax,[1],4 h
same,Tmax,[2],2 h
same,Tmax,[5],4 h
same,Tmax,[3],3.33 h
same,Tmax,[4],3 h
same,Vd/F,[1],202 L
same,Vd/F,[2],616 L
same,Vd/F,[5],2130 L
same,Vd/F,[3],982 L
same,Vd/F,[4],437 L
same,k el,"female, ke (elimination constant), K4 female, single oral 5 mg/kg, slope from 8, 12, 24 h",5.28e-05 s⁻¹
same,k el,"female, ke (elimination constant), K5 female, single oral 5 mg/kg, slope from 8, 12, 24 h",1.94e-05 s⁻¹
same,k el,"female, ke (elimination constant), K6 female, single oral 5 mg/kg, slope from 8,12,24 h",2.78e-05 s⁻¹
same,k el,"female, ke, arithmetic mean, female koalas (n = 3), single oral 5 mg/kg",3.33e-05 s⁻¹
same,k el,"female, ke, harmonic mean, female koalas (n = 3), single oral 5 mg/kg",2.78e-05 s⁻¹
same,half-life,"female, t1/2 (elimination half-life), K4 female, single oral 5 mg/kg",3.67 h
same,half-life,"female, t1/2 (elimination half-life), K5 female, single oral 5 mg/kg",9.91 h
same,half-life,"female, t1/2 (elimination half-life), K6 female, single oral 5 mg/kg",7.24 h
same,half-life,"female, t1/2, arithmetic mean, female koalas (n = 3), single oral 5 mg/kg",6.94 h
same,half-life,"female, t1/2, harmonic mean, female koalas (n = 3), single oral 5 mg/kg",5.87 h
same,half-life,"female, t1/2, median value, female koalas, PO 5 mg/kg",7.24 h
same,AUC 0-t/AUC0-inf,[6],0.91
same,AUMC 0-inf,[6],10875.3 ng/mL*h^2
same,Cl/F,[6],52.0 L/h
same,ka,[6],0.25 h⁻¹
same,AUC 0-t/AUC0-inf,[7],0.88
same,AUMC 0-inf,[7],16711.5 ng/mL*h^2
same,Cl/F,[7],23.8 L/h
same,ka,[7],0.16 h⁻¹
same,AUMC,[8],13176.1 ng/mL*h ^ 2
same,Cl/F,[8],32.6 L/h
same,ka,[8],0.20 h⁻¹
same,concentration at 2 h,[9],22.7 ng/mL
same,concentration at 4 h,[9],68.3 ng/mL
same,concentration at 8 h,[9],191 ng/mL
same,concentration at 2 h,[10],39.2 ng/mL
same,concentration at 4 h,[10],210 ng/mL
same,concentration at 8 h,[10],118 ng/mL
same,concentration at 1 h,[11],41.9 ng/mL
same,concentration at 2 h,[11],105 ng/mL
same,concentration at 4 h,[11],263 ng/mL
same,concentration at 8 h,[11],128 ng/mL
same,concentration at 0.25 h,[12],7.94 ng/mL
same,concentration at 0.5 h,[12],4.51 ng/mL
same,concentration at 1 h,[12],8.34 ng/mL
same,concentration at 12 h,[12],101 ng/mL
same,concentration at 24 h,[12],57.2 ng/mL
same,concentration at 0.25 h,[13],4.37 ng/mL
same,concentration at 0.5 h,[13],10 ng/mL
same,concentration at 1 h,[13],21.7 ng/mL
same,concentration at 12 h,[13],39.7 ng/mL
same,concentration at 24 h,[13],4.13 ng/mL
same,concentration at 0.25 h,[14],16.6 ng/mL
same,concentration at 0.5 h,[14],52.5 ng/mL
same,concentration at 12 h,[14],49.6 ng/mL
same,concentration at 24 h,[14],3.86 ng/mL
same,AUC(0-inf),"male, AUC0-inf, K1 male, single oral 5 mg/kg",3000 ng·h/mL
same,AUC(0-inf),"male, AUC0-inf, K2 male, single oral 5 mg/kg",1540 ng·h/mL
same,AUC(0-inf),"male, AUC0-inf, K3 male, single oral 5 mg/kg",1950 ng·h/mL
same,AUC(0-inf),"male, AUC 0-inf, arithmetic mean, male koalas (n = 3), single oral 5 mg/kg",2160 ng·h/mL
same,AUC(0-inf),"male, AUC 0-inf, harmonic mean, male koalas (n = 3), single oral 5 mg/kg",2010 ng·h/mL
same,AUC(0-t),[15],2160 ng·h/mL
same,AUC(0-t),[16],1520 ng·h/mL
same,AUC(0-t),[17],1930 ng·h/mL
same,AUC(0-t),[18],1870 ng·h/mL
same,AUC(0-t),[19],1830 ng·h/mL
same,Cmax,[15],191 ng/mL
same,Cmax,[16],210 ng/mL
same,Cmax,[17],263 ng/mL
same,Cmax,[18],221 ng/mL
same,Cmax,[19],217 ng/mL
same,Cmax,"male, median value, male koalas, PO 5 mg/kg",210 ng/mL
same,MRT inf,[15],19 h
same,MRT inf,[16],7.13 h
same,MRT inf,[17],6.88 h
same,MRT inf,[18],11.1 h
same,MRT inf,[19],9.01 h
same,Tmax,[15],8 h
same,Tmax,[16],4 h
same,Tmax,[17],4 h
same,Tmax,[18],5.33 h
same,Tmax,[19],4.8 h
same,Vd/F,[15],277 L
same,Vd/F,[16],152 L
same,Vd/F,[17],113 L
same,Vd/F,[18],181 L
same,Vd/F,[19],158 L
same,k el,"male, ke (elimination constant), K1 male, single oral 5 mg/kg, slope from 12, 24 h",1.39e-05 s⁻¹
same,k el,"male, ke (elimination constant), K2 male, single oral 5 mg/kg, slope from 4, 8, 12 h",5.83e-05 s⁻¹
same,k el,"male, ke (elimination constant), K3 male, single oral 5 mg/kg, slope from 4, 8, 12 h",6.11e-05 s⁻¹
same,k el,"male, ke, arithmetic mean, male koalas (n = 3), single oral 5 mg/kg",4.44e-05 s⁻¹
same,k el,"male, ke, harmonic mean, male koalas (n = 3), single oral 5 mg/kg",2.78e-05 s⁻¹
same,half-life,"male, t1/2 (elimination half-life), K1 male, single oral 5 mg/kg",14.7 h
same,half-life,"male, t1/2 (elimination half-life), K2 male, single oral 5 mg/kg",3.31 h
same,half-life,"male, t1/2 (elimination half-life), K3 male, single oral 5 mg/kg",3.19 h
same,half-life,"male, t1/2, arithmetic mean, male koalas (n = 3), single oral 5 mg/kg",7.06 h
same,half-life,"male, t1/2, harmonic mean, male koalas (n = 3), single oral 5 mg/kg",4.38 h
same,half-life,"male, t1/2, median value, male koalas, PO 5 mg/kg",3.31 h
same,AUMC,[20],12429.4 (8500.1–56998.2) ng/mL*h ^ 2
same,Cl/F,[20],34.5 (19.0-87.5) L/h
same,ka,[20],0.23 (0.11-0.43) 1/h
same,time after which firocoxib could be detected in the plasma of all koalas,single oral 5 mg/kg,15 min
